# According to patent US7582628B2, “Pyrrolo[3,4-c]pyrazole derivatives active as kinase inhibitors, process for their preparation and pharmaceutical compositions comprising them” (Pfizer Italia S.r.l., priority 2003, dated 2009):
# Legend:
# [1] = test system: HCT-116; experiment: In vitro cell proliferation assay; assay type: cell-based; details: Homo sapiens; HCT-116, 72 hours of treatment; read-out: Cell Antiproliferation IC50
# Method: In Vitro Cell Proliferation Assay
# The human colon cancer cell line HCT-116 was seeded at 5000 cells/cm2 in 24 wells plate (Costar) using F12 medium (Gibco) supplemented with 10% FCS (EuroClone, Italy) 2 mM L-glutamine and 1% penicillin/streptomycin and maintained at 37° C., 5% CO2 and 96% relative humidity. The following day, plates were treated in duplicates with 5 ul of an appropriate dilution of compounds starting from a 10 mM stock in DMSO. Two untreated control wells were included in each plate. After 72 hours of treatment, medium was withdrawn and cells detached from each well using 0.5 ml of 0.05% (w/v) Trypsin, 0.02% (w/v) EDTA (Gibco). Samples were diluted with 9.5 ml of Isoton (Coulter) and counted using a Multisizer 3 cell counter (Beckman Coulter). Data were evaluated as percent of the control wells: % of CTR=(Treated−Blank)/(Control−Blank).
# IC50 values were calculated by LSW/Data Analysis using Microsoft Excel sigmoidal curve fitting.
# [2] = test system: HCT-116; experiment: In vitro cell cycle analysis; assay type: cell-based, human; details: HCT-116, 200 nM, treated for 24 hours
# Method: In Vitro Cell Cycle Analysis
# The human colon cancer cell line HCT-116 was seeded at 5000 cells/cm2 in 24 wells plate (Costar) and cultured as mentioned above. Cells in their exponential phase of growth were treated for 24 hours with different concentrations of compound. Also, culture medium supernatant was collected to avoid loss of detached apoptotic or mitotic cells. Thereafter, cells were washed using PBS and detached by 0.05% (w/v) trypsin, 0.02% (w/v) EDTA (Gibco). Trypsin activity was stopped using culture medium. Adherent and non-adherent cell fractions were pooled and centrifuged at 2000 rpm for 10 minutes. Cells were re-suspended in PBS and counted using a Multisizer 3 cell counter (Beckman Coulter). For fixation, ethanol was added (70%, v/v) and cells were kept at −20° C. overnight.
# One million fixed cells were centrifuged at 2000 rpm for 5 minutes and washed with PBS and subsequently stained for 1 hour at room temperature in the dark by adding 200 µl: 25 µg/ml propidium iodide (Sigma) and 15 ug/ml RNAse A (Sigma), 0.001% (v/v) Nonidet P40 (Sigma) in sodium citrate (0.1% w/v, pH 7.5). Samples were analyzed by flow cytometry at 488 nm excitation (FACSCalibur, Beckton Dickinson) using Cell Quest 3.0 software (Beckton Dickinson). Typically 10000 events (activating doubles discriminate module DDM and gating only single cells) were collected and cell cycle profiles were recorded using CellQuest (Verity Software). Cell Cycle distribution of the population was calculated using a modified model in Modfit 3.1 software (Verity Software) and expressed in % G0/G1, S, G2/M and polyploidy.
# [3] = biological target: T1, Aurora-2 (Homo sapiens, UniProt O14965); experiment: Inhibition assay of Aurora-2 activity (SPA); assay type: biochemical; details: 10 μM ATP, 60 minutes at room temperature
# T1 sequence (O14965 1-403): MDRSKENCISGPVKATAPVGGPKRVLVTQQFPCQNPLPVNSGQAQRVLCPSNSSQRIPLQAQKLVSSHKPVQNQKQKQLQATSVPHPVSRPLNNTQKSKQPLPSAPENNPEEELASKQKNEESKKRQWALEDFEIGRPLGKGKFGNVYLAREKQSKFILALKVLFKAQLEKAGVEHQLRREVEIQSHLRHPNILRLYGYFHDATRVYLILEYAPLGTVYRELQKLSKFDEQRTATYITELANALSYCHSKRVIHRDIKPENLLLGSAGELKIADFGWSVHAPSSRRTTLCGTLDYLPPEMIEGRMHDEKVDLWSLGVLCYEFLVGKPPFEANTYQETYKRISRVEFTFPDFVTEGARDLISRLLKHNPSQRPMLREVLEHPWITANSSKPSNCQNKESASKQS
# Method: The inhibiting activity and the potency of selected compounds is determined through a method of assay based on the use of the SPA technology (Amersham Pharmacia Biotech). The assay consists of the transfer of radioactivity labelled phosphate moiety by the kinase to a biotinylated substrate. The resulting 33P-labelled biotinylated product is allowed to bind to streptavidin-coated SPA beads (biotin capacity 130 pmol/mg), and light emitted was measured in a scintillation counter.
# Inhibition Assay of Aurora-2 Activity
# Kinase reaction: 8 μM biotinylated peptide (4 repeats of LRRWSLG), 10 μM ATP (0.5 uCi P^33γ-ATP), 7.5 ng Aurora 2, inhibitor in a final volume of 30 μl buffer (HEPES 50 mM pH 7.0, MgCl2 10 mM, 1 mM DTT, 0.2 mg/ml BSA, 3 μM orthovanadate) were added to each well of a 96 U bottom well plate. After 60 minutes at room temperature incubation, reaction was stopped and biotinylated peptide captured by adding 100 μl of bead suspension.
# Stratification: 100 μl of CsCl2 5 M were added to each well and let stand 4 hour before radioactivity was counted in the Top-Count instrument.
# IC50 determination: inhibitors were tested at different concentrations ranging from 0.0015 to 10 μM. Experimental data were analyzed by the computer program GraphPad Prizm using the four parameter logistic equation: y=bottom+(top−bottom)/(1+10^((log IC50−x)*slope)) where x is the logarithm of the inhibitor concentration, y is the response; y starts at bottom and goes to top with a sigmoid shape.
IC50 [1],IC50 [3],Compound,Cell Cycle block (% G2/M + polyploidy at 200 nM) [2]
17 nM,63 nM,"C[C@@H](C(=O)N1Cc2[nH]nc(NC(=O)c3ccc(N4CCN(C)CC4)cc3)c2C1)c1ccccc1 [Compound (11), N-{5-[(2R)-2-methyl-2-phenylethanoyl]-1,4,5,6-tetrahydropyrrolo[3,4-c]pyrazol-3-yl}-4-(4-methylpiperazin-1-yl)benzamide]",90%
220 nM,140 nM,"CN1CCN(c2ccc(C(=O)Nc3[nH]nc4c3CN(C(=O)Cc3ccccc3)C4)cc2)CC1 [Reference compound, N-{5-phenylacetyl-4,6-dihydropyrrolo[3,4-c]pyrazol-3-yl}-4-(4-methylpiperazino)benzamide, reference compound]",33%

# More lines, now with the values behind:
Compound,IC50 [1],IC50 [3],Cell Cycle block (% G2/M + polyploidy at 200 nM) [2]
"CO[C@@H](C(=O)N1Cc2[nH]nc(NC(=O)c3ccc(N4CCN(C)CC4)cc3)c2C1)c1ccccc1 [Compound (1), N-{5-[(2R)-2-methoxy-2-phenylethanoyl]-1,4,5,6-tetrahydropyrrolo[3,4-c]pyrazol-3-yl}-4-(4-methylpiperazin-1-yl)benzamide]",31 nM,–,90%
"CO[C@@H](C(=O)N1Cc2[nH]nc(NC(=O)c3ccc(N4CCN(C)C(C)C4)cc3)c2C1)c1ccccc1 (stereo partly drawn) [Compound (5), 4-(3,4-dimethylpiperazin-1-yl)-N-{5-[(2R)-2-methoxy-2-phenylethanoyl]-1,4,5,6-tetrahydropyrrolo[3,4-c]pyrazol-3-yl}benzamide]",50 nM,18 nM,90%
"CO[C@@H](C(=O)N1Cc2[nH]nc(NC(=O)c3ccc(N4CCCCC4)cc3)c2C1)c1ccccc1 [Compound (6), N-{5-[(2R)-2-methoxy-2-phenylethanoyl]-1,4,5,6-tetrahydropyrrolo[3,4-c]pyrazol-3-yl}-4-piperidin-1-ylbenzamide]",30 nM,37 nM,90%
